Experimental data published in paper PMC7616174, “Development of Novel 4-Arylpyridin-2-one and 6-Arylpyrimidin-4-one Positive Allosteric Modulators of the M1 Muscarinic Acetylcholine Receptor” (ChemMedChem, 2020).

Columns and labels:
M1 mAChR [1] = target: T1, M1 mAChR (Homo sapiens, UniProt P11229); assay: β-arrestin 2 recruitment assay (BRET); type: cell-based; conditions: for αβ (functional cooperativity with ACh) / τB (intrinsic efficacy of the modulator): antilog, in parentheses; for log τB (logarithm of intrinsic efficacy of the modulator) / log αβ (logarithm of functional cooperativity between ACh and modulator): operational model; for log αβ (logarithm of functional cooperativity between ACh and modulator): pKB constrained to binding value
T1 construct: expressed in transfected cells; host or cells: parental FlpIn CHO cells (transient, PEI)
T1 sequence (P11229 1-460): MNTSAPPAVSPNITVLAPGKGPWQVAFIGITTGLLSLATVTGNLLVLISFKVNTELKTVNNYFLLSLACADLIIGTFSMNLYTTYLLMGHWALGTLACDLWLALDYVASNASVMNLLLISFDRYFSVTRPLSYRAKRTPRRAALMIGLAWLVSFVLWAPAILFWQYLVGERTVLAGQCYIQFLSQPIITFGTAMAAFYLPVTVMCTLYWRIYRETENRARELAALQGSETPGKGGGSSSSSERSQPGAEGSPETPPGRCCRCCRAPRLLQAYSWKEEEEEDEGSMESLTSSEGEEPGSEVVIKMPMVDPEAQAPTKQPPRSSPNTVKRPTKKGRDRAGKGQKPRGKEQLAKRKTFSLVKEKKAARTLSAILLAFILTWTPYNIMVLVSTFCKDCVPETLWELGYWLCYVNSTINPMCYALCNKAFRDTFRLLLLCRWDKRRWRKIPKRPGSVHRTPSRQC
Excerpt: The compounds were then fully characterised in two functional assays (Figure 2C and D); the Gq-coupled IP1 accumulation assay (Figure S2), which was used for the initial screening of the compounds, and a β-arrestin 2 recruitment assay (Figure S3). The operational efficacy (τB) values for the modulators and their functional cooperativity estimates with ACh (logαβACh) at both signalling pathways were estimated by applying an operational model of allosterism and agonism to the data [Eq. (3)],[16] and are listed in Table 5.
Parental FlpIn CHO cells were plated at 30000 cells/well of 96-well white Culture plates (Perkin Elmer Life Sciences) and transiently transfected with 10 ng/well of M1 Renilla luciferase (Rluc)-8 and 40 ng/well of YFP-β-arrestin 2 using linear polyethyleneimine (PEI/DNA ratio 6:1) diluted in 150 mM NaCl. DNA:PEI complexes were formed by 15 min incubation at room temperature then added to the cells and incubated at 37°C for 24 h prior to use. Cells were then washed and equilibrated in Hanks’ balanced salt solution for 1 h at 37°C. Coelenterazine h at a final concentration of 5 μM was added to each well, followed by addition of increasing concentrations of ACh in the absence or presence of increasing concentrations of each modulator. Lumines-cence and fluorescence signals were measured 5 min after agonist stimulation using the LUMIstar Omega plate reader (BMG LabTech, Offenburg, Germany). […] Data were then normalized to the maximum response to ACh.
Functional interaction studies between ACh and allosteric modulators in IP1 and β-arrestin 2 recruitment assays were analysed according to a three-parameter logistic equation or the following operational model of allosterism and agonism [Eq. (3)].[16] E=Basal+(Em−Basal)([A](KB+αβ[B])+τB[B]EC50)^n/EC50n(KB+[B])^n+([A](KB+αβ[B])+τB[B]EC50)^n where Em is the maximal possible system response, and Basal is the response in the absence of agonist. [A] and [B] are concentrations of orthosteric and allosteric ligands, respectively. KB is the equilibrium dissociation constant of allosteric ligand, and EC50 is the concentration of orthosteric agonist required to achieve half maximal response. α and β represent the magnitude of the allosteric effects on orthosteric ligand affinity and efficacy, respectively; τB is the efficacy of allosteric ligand, and n is the slope factor of the transducer function that links occupancy to response.

M1 mAChR [2] = target: T1, M1 mAChR; design: method as in PMID 24051397; conditions: ref 10a; cited from earlier work
in vivo = conditions: male, C57Bl/6 J, mouse, 10 mg/kg
Description: (§1) The study was performed using 10–12 weeks old male C57Bl/6 J naïve mice in accordance with the Australian Code of Practice for the Care and Use of Animals for Scientific Purposes, with procedures approved by the Animal Ethics Committee of the Monash Institute of Pharmaceutical Sciences.

[3] = In vivo brain and plasma exposure in mice after IP administration; conditions: for cbrain, total concentration, 90 min post-dose / cplasma, total concentration, 90 min post-dose / cplasma, total concentration, 20 or 45 min post-dose: range n=3; for cbrain, total concentration, 20 or 45 min post-dose / cplasma, total concentration, 20 or 45 min post-dose: 20 min (10 mg/kg) for 2, 7f, 13c, 45 min (20 mg/kg) for BQCA; for cbrain, total concentration, 20 or 45 min post-dose: range in individual mice n=3
Description: as §1

[4] = 10 mg/kg (BQCA 20 mg/kg), range n=3, in parentheses
[5] = 20 min (10 mg/kg) for 2, 45 min (20 mg/kg) for BQCA, range n=3, in parentheses

SMILES	αβ (functional cooperativity with ACh) (M1 mAChR [1])	τB (intrinsic efficacy of the modulator) (M1 mAChR [1])	log τB (logarithm of intrinsic efficacy of the modulator) (M1 mAChR [1])	log αβ (logarithm of functional cooperativity between ACh and modulator) (M1 mAChR [1])	increase in binding cooperativity with ACh (αACh) compared to MIPS1650 (1) (M1 mAChR [2])	increase in intrinsic efficacy (τB) compared to MIPS1650 (1) (M1 mAChR [2]) [fold]	Kp (in vivo; brain/plasma, ip)	Kp uu (in vivo; brain/plasma, ip)	cbrain, total concentration, 90 min post-dose ([3]; 10 mg/kg (BQCA 20 mg/kg))	cplasma, total concentration, 90 min post-dose ([3]; 10 mg/kg (BQCA 20 mg/kg))	cbrain, unbound concentration, 90 min post-dose [3, 4] [µM]	cplasma, unbound concentration, 90 min post-dose [3, 4] [µM]	cbrain, total concentration, 20 or 45 min post-dose [3]	cplasma, total concentration, 20 or 45 min post-dose [3]	cbrain, unbound concentration, 20 or 45 min post-dose [3, 5] [µM]	cplasma, unbound concentration, 20 or 45 min post-dose [3, 5] [µM]	concentration at 90 min (in vivo; brain, intraperitoneal) [nM]
Cn1cc(-c2ccc(COc3ccccc3-c3cc(=O)n(C4CCCCC4O)cn3)cc2)cn1 (centres unmarked) [Compound 2, 3-(2-Hydroxycyclohexyl)-6-(2-((4-(1-methyl-1H-pyrazol-4-yl)benzyl)oxy)phenyl)pyrimidin-4(3H)-one]	63	2	0.37±0.11	1.80±0.35	fourfold increase	11	< 0.1	< 0.1	0.0 to 0.1 µM	0.7 to 1.1 µM	0.0	0.0	0.7 to 1.2 µM	15.0 to 16.5 µM	0.0	0.1	
Cn1cc(-c2ccc(COc3ncccc3-c3ccn(C4CCCCC4O)c(=O)c3)cc2)cn1 (centres unmarked) [Compound 7f, 1’-(2-Hydroxycyclohexyl)-2-((4-(1-methyl-1H-pyrazol-4-yl)benzyl)oxy)-[3,4’-bipyridin]-2’(1’H)-one]	81	2	0.23±0.08	1.91±0.10						11.1–13.7 (n.a.) μM			0.3–0.4 (n.a.) μM	31.8–40.7 (n.a.) μM			100
CN(C)C(=O)Cn1ccc(-c2ccccc2OCc2ccc(-c3cnn(C)c3)cc2)cc1=O [Compound 13c, N,N-Dimethyl-2-(4-(2-((4-(1-methyl-1H-pyrazol-4-yl)benzyl)oxy)phenyl)-2-oxopyridin-1(2H)-yl)acetamide]	55	1	–0.01±0.06	1.74±0.11					n.q.	4.9–5.4 (n.a.) μM			n.q.	25.3–46.5 (n.a.) μM			
